Test [1] has as its system P. falciparum Dd2, DR1 and DR4. Kind of test: SYBR Green 72 h drug susceptibility assay against ART-resistant clones. Type of test: cell-based, Plasmodium falciparum. On the procedure: Drug susceptibility assay against ART-resistant P. falciparum clones was performed using a SYBR Green-based assay[44],[74]. Synchronized ring stage parasites were cultured for 72 h in the presence of the test drug. The assay was performed in 96-well plates at 2% hematocrit and 0.5% starting parasitemia. Each experiment was conducted in triplicate and repeated with three biological replicates. Parasite growth at 72 h was quantified via SYBR Green I staining. The obtained counts were plotted against the logarithm of the compound concentration, and a curve was fitted with non-linear regression (sigmoidal dose-response/variable slope equation) to determine IC50 (half-maximal inhibitory concentration) values. The data was analyzed using GraphPad Prism software 8.0.

Test [2] relates to P. yoelii wild type, ATV^r and ELQ-300^r clones. The experiment in a line: 4-day suppression model with ATV- and ELQ-300-resistant clones. Conditions: (95% CI). Type of test: in vivo, P. yoelii in CF1 mice. An excerpt:
Animals were housed at the VAPORHCS in Thoren Maxi-Miser microisolator cages (78 sq. in. floor space) with a maximum density of five females or four males per cage. Cages were maintained on a 12-h light/dark cycle and provided with autoclaved nesting materials (nestlets) for environmental enrichment. All mice had ad libitum access to food and water. Four- to five-week-old female and male outbred CF1 mice (Charles River Laboratories, Raleigh, NC, USA) were randomly assigned to treatment and control groups using a simple randomization procedure (e.g., computer-generated random numbers) to ensure balanced distribution of baseline body weights and starting parasitemia levels across all cohorts. Groups of four mice (n = 4, mean body weight of each group was ~30 g) were infected intravenously with 3.5 × 10^4 P. yoelii (Kenya strain, MRA-428) from a donor animal. Drug administration commenced the day after the animals were inoculated (Day 1). The test drug or the drug combination was dissolved in PEG-400 and administered by oral gavage once daily for 4 successive days in the 4-day suppression model, but only once on Day 1 in the single-dose cure model. Blood was collected via the tail vein with the aid of a syringe needle on Day 5 and then at weekly intervals through Day 28. Blood films were Giemsa-stained and examined microscopically to determine the level of parasitemia. All mice were observed daily to assess clinical signs. Animals with observable parasitemia following the experiments were euthanized; animals cleared of parasitemia from their bloodstream were observed daily with assessment of parasitemia performed weekly until Day 28, at which point, the animal(s) were scored as cured of the infection and then humanely euthanized. All treated mice with a negative smear on Day 28 were considered cured (100% protection).
(§1) Drug susceptibility assays against P. falciparum strains were performed using a SYBR Green based assay. D6 and Dd2 were obtained from MR4. Tm90-C2B was obtained from WRAIR. Dd2-D1^I22L and ELQ-300 were obtained from VAPORHCS. D10yDHODH was obtained as a courtesy from Dr. Akhil Vaidya at Drexel University. P. yoelii ATV^r and ELQ-300^r clones were obtained from VAPORHCS.

Test [3] concerns P. cynomolgi hypnozoites and schizonts. Kind of test: in vitro liver-stage P. cynomolgi assay in primary rhesus hepatocytes. Type of test: cell-based, Plasmodium cynomolgi. On the procedure: The liver-stage P. cynomolgi assay was designed to identify anti-hypnozoite drugs utilizing a 384-well in vitro culture system[31],[37]. Briefly, cryopreserved primary simian hepatocytes (donor lots XGB, OQB, and QHO: BioIVT, Inc.) were seeded in collagen-coated 384-well plates and infected with P. cynomolgi bastianellii (B strain) sporozoites dissected from infected Anopheles dirus mosquitoes. Test compounds were solubilized in 100% DMSO and serially diluted 2-fold to generate up to a 12-point dose-response curve, maintaining a final DMSO concentration of 0.1% across all wells. Two distinct treatment modes were evaluated. For the prophylactic assay, to assess the prevention of infection, compound exposure began 1-hour post-infection with daily media changes on Days 1 and 2. For the radical cure assay, to assess activity against established liver forms, drugs were administered daily from Day 4 through Day 7 post-infection. […] For readout on Day 8, plates were fixed and stained via immunofluorescence to visualize parasite forms (hypnozoites and schizonts) and hepatocyte nuclei, and images were acquired using an Operetta CLS high-content imaging system (PerkinElmer). Host hepatocyte viability was measured in parallel to determine compound toxicity. Parasite forms were automatically quantified using Harmony 4.9 software, and percent inhibition and toxicity were calculated relative to in-plate DMSO vehicle controls. IC50 and CC50 (half-maximal cytotoxic concentrations) were determined by fitting dose-response data to a four-parameter logistic (variable slope) model using a custom Python script incorporating a grid search algorithm.

Test [4] has as its system P. falciparum mutant T111 lines. The experiment in a line: drug susceptibility of T111-selected cyt b mutant lines. Type of test: cell-based, Plasmodium falciparum. On the procedure:
DNA extractions were performed on clonal parasites using the QIAamp DNA extraction kit (QIAGEN Inc, Valencia, CA) or ZYMO Quick gDNA Miniprep kit (Zymo Research Corp, Irvine, CA). For sequencing of the open reading frame of pfcytb, PCR was performed with genomic DNA using forward and reverse flanking primers for cyt b primer 1: 5’-[…]-3’ and primer 2: 5’-[…]-3’. PCR products were subjected to enzymatic cleanup with ExoSAP-IT (Thermo Fisher Scientific) and sent for Sanger sequencing (Eurofins Genomics, Louisville, KY) with PCR primer 2 paired with an internal forward primer: 5’-[…]-3’ and an internal reverse primer: 5’-[…]-3’. Sequences were assembled using 4Peaks software (Nucleobytes, Amsterdam, Netherlands) and aligned with Clustal Omega (EMBL-EBI). For sequencing of the open reading frame of pfdhodh, PCR was performed with genomic DNA using forward primer: 5’-[…]-3’ and reverse primer: 5’-[…]-3’. PCR products were prepared for Sanger sequencing and analyzed as described above, except using two forward primers: 5’-[…]-3’ and 5’-[…]-3’ and with two reverse primers: 5’-[…]-3’ and 5’-[…]-3’.
as §1

The test system of test [5] is P. falciparum D6, Dd2, Tm90-C2B, Dd2-D1^I22L, D10yDHODH. The experiment in a line: microbe, parasite or virus in culture. Type of test: cell-based, Plasmodium falciparum. On the procedure: as §1

Several values for one entry are separate records, joined by “and”; a condition that tells them apart may be missing. Identical values can stand only once. Like-named read-outs stand apart in the source and are kept apart here.

One may read the IC50 as the point on the concentration scale where inhibition reaches its midpoint. For the molecule `O=c1c2ccc(Oc3ccc(OC(F)(F)F)cc3)cc2[nH]c2cc(Cl)cc(F)c12` [T111], the IC50 stood at 0.11 nM in test [1] (DR1 (ART-R)); 0.028 nM in test [1] (Dd2); 93 nM in test [3] (prophylactic mode, hypnozoite, read-out: inhibition IC50); 18 nM in test [3] (prophylactic mode, schizont, read-out: inhibition IC50); 500 nM in test [3] (radical cure mode, hypnozoite, read-out: inhibition IC50); 280 nM in test [3] (radical cure mode, schizont, read-out: inhibition IC50). Moreover, the IC50 was determined as 98 ± 12 nM in test [4] (Dd2-A^131S-140I-259L-264L, read-out: inhibition IC50 vs P. falciparum); 74 ± 5.1 nM in test [4] (Dd2-A^131S-140I-259L, read-out: inhibition IC50 vs P. falciparum); 129 ± 6.3 nM in test [4] (Dd2-B^87V-131S-140I-259L, read-out: inhibition IC50 vs P. falciparum); 114 ± 13 nM in test [4] (Dd2-B^131S-140I-259L-264L, read-out: inhibition IC50 vs P. falciparum); 144 ± 12 nM in test [4] (Dd2-C0^119L-131S-259L (pfdhodh mutation), read-out: inhibition IC50 vs P. falciparum); 223 ± 36 nM in test [4] (Dd2-C1^131S-140I-259L (pfdhodh mutation), read-out: inhibition IC50 vs P. falciparum). In addition, the IC50 is 0.15 ± 0.023 nM in test [4] (Dd2, read-out: inhibition IC50 vs P. falciparum); 12 ± 2.5 nM in test [4] (Dd2^131S-259L, read-out: inhibition IC50 vs P. falciparum); 0.78 ± 0.081 nM in test [4] (Dd2^131S, read-out: inhibition IC50 vs P. falciparum); 4.4 ± 0.71 nM in test [4] (Dd2^259L, read-out: inhibition IC50 vs P. falciparum); 0.028 ± 0.00036 nM in test [5] (D6, read-out: in vitro IC50 vs P. falciparum); > 2500 nM in test [5] (D10yDHODH, read-out: in vitro IC50 vs P. falciparum). Moreover, the IC50 in test [5] (Dd2, read-out: in vitro IC50 vs P. falciparum) is 0.042 ± 0.0042 nM; in test [5] (Tm90-C2B (cyt b Y268S, ATV-resistant), read-out: in vitro IC50 vs P. falciparum), 4 ± 0.076 nM. The ED50 in test [2] (P. yoelii ATVrY268S) is 0.31 (0.29–0.34) mg/kg/day and 0.31 mg/kg/day; in test [2] (P. yoelii ELQ-300rI22L) it was 0.25 (0.21–0.30) mg/kg/day and 0.25 mg/kg/day; in test [2] (P. yoelii wild type), 0.24 (0.20–0.29) mg/kg/day and 0.24 mg/kg/day. Further, the “residual population of hypnozoites” value in test [3] (radical cure mode, highest concentrations tested) is 10-20%.
For `O=C1C(O)=C([C@H]2CC[C@H](c3ccc(Cl)cc3)CC2)C(=O)c2ccccc21` [ATV, atovaquone], the ED50 is given as 15.3 (9.9–24) mg/kg/day in test [2] (P. yoelii ATVrY268S), 0.068 (0.053–0.087) mg/kg/day in test [2] (P. yoelii ELQ-300rI22L) and 0.064 (0.049–0.085) mg/kg/day in test [2] (P. yoelii wild type). The IC50 was > 1200 nM in test [3] (Plasmodium cynomolgi, Hepatocyte, in Macaca mulatta, prophylactic mode, hypnozoite, read-out: inhibition IC50); 9.3 nM in test [3] (Plasmodium cynomolgi, Hepatocyte, in Macaca mulatta, prophylactic mode, schizont, read-out: inhibition IC50); 2460 nM in test [3] (Plasmodium cynomolgi, Hepatocyte, in Macaca mulatta, radical cure mode, hypnozoite, read-out: inhibition IC50); 2250 nM in test [3] (Plasmodium cynomolgi, Hepatocyte, in Macaca mulatta, radical cure mode, schizont, read-out: inhibition IC50); > 2000 nM in test [3] (Plasmodium cynomolgi, Hepatocyte, in Macaca mulatta, summary in response to reviewers, read-out: IC50 values against hypnozoites); 0.44 ± 0.052 nM in test [4] (Plasmodium falciparum, DD2, read-out: inhibition IC50 vs P. falciparum, Dd2). In addition, the IC50 in test [4] (Plasmodium falciparum, DD2, read-out: inhibition IC50 vs P. falciparum, Dd2-A^131S-140I-259L) was determined as 4.7 ± 0.44 nM; in test [4] (Plasmodium falciparum, DD2, read-out: inhibition IC50 vs P. falciparum, Dd2-A^131S-140I-259L-264L), 15 ± 2 nM; in test [4] (Plasmodium falciparum, DD2, read-out: inhibition IC50 vs P. falciparum, Dd2-B^87V-131S-140I-259L) it was 10 ± 1.4 nM; in test [4] (Plasmodium falciparum, DD2, read-out: inhibition IC50 vs P. falciparum, Dd2-B^131S-140I-259L-264L), 11 ± 1.8 nM; in test [4] (Plasmodium falciparum, DD2, read-out: inhibition IC50 vs P. falciparum, Dd2-C0^119L-131S-259L (pfdhodh mutation)) it was 15 ± 0.46 nM; in test [4] (Plasmodium falciparum, DD2, read-out: inhibition IC50 vs P. falciparum, Dd2-C1^131S-140I-259L (pfdhodh mutation)), 25 ± 7.2 nM. For the same molecule, the IC50 in test [4] (Plasmodium falciparum, DD2, read-out: inhibition IC50 vs P. falciparum, Dd2^131S) is 0.34 ± 0.049 nM; in test [4] (Plasmodium falciparum, DD2, read-out: inhibition IC50 vs P. falciparum, Dd2^131S-259L), 1.5 ± 0.17 nM; in test [4] (Plasmodium falciparum, DD2, read-out: inhibition IC50 vs P. falciparum, Dd2^259L), 6.6 ± 1.9 nM; in test [5] (Plasmodium falciparum, read-out: in vitro IC50 vs P. falciparum, D6), 0.073 ± 0.01 nM; in test [5] (Plasmodium falciparum, read-out: in vitro IC50 vs P. falciparum, D10yDHODH), > 2500 nM; in test [5] (Plasmodium falciparum, read-out: in vitro IC50 vs P. falciparum, Dd2), 0.13 ± 0.012 nM. For the same molecule, the IC50 in test [5] (Plasmodium falciparum, read-out: in vitro IC50 vs P. falciparum, Dd2-D1^I22L (ELQ-300-resistant)) is 0.007 ± 0.0025 nM; in test [5] (Plasmodium falciparum, read-out: in vitro IC50 vs P. falciparum, Tm90-C2B (cyt b Y268S, ATV-resistant)) it was 8538 ± 65 nM.

For the origin of these results see publication PMC13168289, “Potent acridone antimalarial against all three life stages of Plasmodium” (Nature Communications, 2026).
